Measurements as given in US7951802B2, “Use of 7-azaindoles in the inhibition of c-Jun N-terminal kinase” (Eisai R&D Management Co., Ltd., priority 2007, dated 2011).

Legend:
[1] = system: panel of 100 kinases; experiment: Selectivity against a panel of kinases (Upstate/Millipore), expressed as Gini coefficient; assay type: biochemical; conditions: reference compounds with aromatic C(5) group, calculated from Table 4 data, concentration not given
Procedure: Selectivity of Compounds (I) Against a Panel of Kinases
Inhibitory potency of compound (I-8) and (I-60) at a concentration of 1 micromolar and (I-69) and (I-70) at a concentration of 5 micromolar with ATP concentration of 10 micromolar was determined at Upstate/Millipore against a panel of 100 kinases representing all major families within the kinome. The results are presented in Table 3 and are expressed as percentage of remaining activity.
For comparison purposes Table 4 contains the relevant inhibitory data for reference compounds A-L containing a (hetero)aromatic ring at C(5) of the 7-azaindole system.
Selectivity Expressed as Gini Coefficient
Selectivity of compounds according to the present invention and reference compounds expressed as Gini coefficient (J. Med. Chem. 2007, 50, 5773-5779) is shown in Table 5. The individual Gini coefficients have been calculated using the data in Tables 3 and 4. Value Gini=0 corresponds to a totally non-selective compound; value Gini=1 reflects perfect selectivity (inhibition of a single target only)

[2] = molecular target: JNK3 (Homo sapiens, UniProt P53779); experiment: JNK3 SPA assay (phosphorylation of GST-c-Jun); assay type: biochemical; conditions: 3.33 μM ATP, GST-c-Jun substrate, read-out: IC50 against JNK3
Procedure: JNK1, JNK2, JNK3—SPA Assay
JNK1, JNK2, JNK3—SPA Assay • 1. Compound is dissolved in DMSO to a convenient concentration and this is diluted in 10% DMSO to a five times concentrate of the desired starting concentration (frequently 1:100). • 2. 10 μl of 500 mM EDTA is added to alternative wells of the Opti-plate row, which will receive kinase reaction plus DMSO. This creates the negative control. • 3. For the JNK2 and JNK3 assay, compounds are prepared in six 2-fold dilutions with water and each concentration is tested in duplicate. For the JNK1 assay compounds are prepared in four 5-fold dilutions with water which are tested in triplicate. Controls are treated identically. • 4. 20 μl per well of each compound concentration is transferred to an Opti-plate, in duplicate. • 5. 30 μl (JNK2/3 SPA) or 50 μl (JNK1 SPA) of substrate solution (25 mM HEPES pH 7.5, 10 mM magnesium acetate with 3.33 μM ATP (JNK2/3) or 2 μM ATP (JNK1), approximately 7.5 kBq [γ-^33P] ATP, GST-c-Jun, in water) is added to each well. • 6. 50 μl (JNK2/3 SPA) or 30 μl (JNK1 SPA) of kinase solution (JNK in 25 mM HEPES pH 7.5, 10 mM Mg Acetate) is added to each well.
• 7. The plate is incubated for 30 minutes at room temperature. • 8. 100 μl of bead/stop solution is added to each well (5 mg/ml glutathione-PVT-SPA beads, 40 mM ATP in PBS). • 9. Plates are sealed and incubated for 30 minutes at room temperature, centrifuged for 10 minutes at 2500 g and counted. • 10. The IC50 values are calculated as the concentration of the compound being tested at which the phosphorylation of c-Jun is decreased to 50% of the control value.

JNK3, sequence (P53779 whole entry, species assumed): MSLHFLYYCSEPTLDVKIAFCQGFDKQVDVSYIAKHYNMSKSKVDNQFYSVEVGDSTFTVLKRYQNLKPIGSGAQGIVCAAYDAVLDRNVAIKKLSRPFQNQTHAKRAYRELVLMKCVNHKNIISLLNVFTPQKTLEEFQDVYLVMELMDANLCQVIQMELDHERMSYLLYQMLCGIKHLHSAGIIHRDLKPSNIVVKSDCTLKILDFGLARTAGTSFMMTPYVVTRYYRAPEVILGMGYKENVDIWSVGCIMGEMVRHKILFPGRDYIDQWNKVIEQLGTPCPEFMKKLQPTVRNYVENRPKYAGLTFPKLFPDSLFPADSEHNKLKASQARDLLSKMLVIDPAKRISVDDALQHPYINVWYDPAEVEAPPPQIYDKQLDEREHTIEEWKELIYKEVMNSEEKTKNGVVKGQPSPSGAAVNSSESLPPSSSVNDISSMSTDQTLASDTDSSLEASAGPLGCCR

IC50 [2] [µM] | SMILES | Selectivity expressed as Gini coefficient [1]
 | CN(C)c1ccc(-c2cnc3[nH]cc(-c4cn[nH]c4)c3c2)cc1 [A] | 0.3368
 | Cn1cc(-c2c[nH]c3ncc(-c4ccc(N5CCOCC5)cc4)cc23)cn1 [B] | 0.3920
 | c1nc2[nH]cc(-c3cn[nH]c3)c2cc1-c1csc(C2CCNCC2)n1 [C] | 0.4129
0.55 | CN1CCC(c2nc(-c3c[nH]c4ncc([C@H]5CC[C@H](N6CCCOCC6)CC5)cc34)cs2)CC1 [Compound I-102, 4-((1r,4r)-4-(3-(2-(1-methylpiperidin-4-yl)thiazol-4-yl)-1H-pyrrolo[2,3-b]pyridin-5-yl)cyclohexyl)-1,4-oxazepane] | 
1.26 | CN1CCCC1c1nc(-c2c[nH]c3ncc([C@H]4CC[C@H](N5CCOCC5)CC4)cc23)cs1 (some centres unmarked) [Compound I-107, 4-((1r,4r)-4-(3-(2-(1-methylpyrrolidin-2-yl)thiazol-4-yl)-1H-pyrrolo[2,3-b]pyridin-5-yl)cyclohexyl)morpholine] | 
1.23 | CN1CCCC1c1nc(-c2c[nH]c3ncc([C@H]4CC[C@@H](N5CCOCC5)CC4)cc23)cs1 (some centres unmarked) [Compound I-108, 4-((1s,4s)-4-(3-(2-(1-methylpyrrolidin-2-yl)thiazol-4-yl)-1H-pyrrolo[2,3-b]pyridin-5-yl)cyclohexyl)morpholine] | 
1.74 | CN1CCN([C@H]2CC[C@H](c3cnc4[nH]cc(-c5csc(C6CCCN6C)n5)c4c3)CC2)CC1 (some centres unmarked) [Compound I-109, 4-(5-((1r,4r)-4-(4-methylpiperazin-1-yl)cyclohexyl)-1H-pyrrolo[2,3-b]pyridin-3-yl)-2-(1-methylpyrrolidin-2-yl)thiazole] | 
> 2 | CN1CCN([C@H]2CC[C@@H](c3cnc4[nH]cc(-c5csc(C6CCCN6C)n5)c4c3)CC2)CC1 (some centres unmarked) [Compound I-110, 4-(5-((1s,4s)-4-(4-methylpiperazin-1-yl)cyclohexyl)-1H-pyrrolo[2,3-b]pyridin-3-yl)-2-(1-methylpyrrolidin-2-yl)thiazole] | 
1.74 | CN1CCCC1c1nc(-c2c[nH]c3ncc([C@H]4CC[C@H](N5CCCC5)CC4)cc23)cs1 (some centres unmarked) [Compound I-111, 2-(1-methylpyrrolidin-2-yl)-4-(5-((1r,4r)-4-(pyrrolidin-1-yl)cyclohexyl)-1H-pyrrolo[2,3-b]pyridin-3-yl)thiazole] | 
1.23 | CN1CCCC1c1nc(-c2c[nH]c3ncc([C@H]4CC[C@H](N5CCCOCC5)CC4)cc23)cs1 (some centres unmarked) [Compound I-113, 4-((1r,4r)-4-(3-(2-(1-methylpyrrolidin-2-yl)thiazol-4-yl)-1H-pyrrolo[2,3-b]pyridin-5-yl)cyclohexyl)-1,4-oxazepane] | 
1.44 | CN1CCCC1c1nc(-c2c[nH]c3ncc([C@H]4CC[C@@H](N5CCCOCC5)CC4)cc23)cs1 (some centres unmarked) [Compound I-114, 4-((1s,4s)-4-(3-(2-(1-methylpyrrolidin-2-yl)thiazol-4-yl)-1H-pyrrolo[2,3-b]pyridin-5-yl)cyclohexyl)-1,4-oxazepane] | 
> 2 | c1nc(-c2c[nH]c3ncc([C@H]4CC[C@H](N5CCCOCC5)CC4)cc23)cs1 [Compound I-116, 4-((1r,4r)-4-(3-(thiazol-4-yl)-1H-pyrrolo[2,3-b]pyridin-5-yl)cyclohexyl)-1,4-oxazepane] | 
0.832 | Cc1csc(-c2c[nH]c3ncc([C@H]4CC[C@H](N5CCCOCC5)CC4)cc23)n1 [Compound I-117, 4-((1r,4r)-4-(3-(4-methylthiazol-2-yl)-1H-pyrrolo[2,3-b]pyridin-5-yl)cyclohexyl)-1,4-oxazepane] | 
0.219 | c1ncc(-c2c[nH]c3ncc([C@H]4CC[C@H](N5CCCOCC5)CC4)cc23)s1 [Compound I-118, 4-((1r,4r)-4-(3-(thiazol-5-yl)-1H-pyrrolo[2,3-b]pyridin-5-yl)cyclohexyl)-1,4-oxazepane] | 
1.05 | c1csc(-c2c[nH]c3ncc([C@H]4CC[C@H](N5CCCOCC5)CC4)cc23)n1 [Compound I-119, 4-((1r,4r)-4-(3-(thiazol-2-yl)-1H-pyrrolo[2,3-b]pyridin-5-yl)cyclohexyl)-1,4-oxazepane] | 
0.479 | COc1nc(-c2c[nH]c3ncc([C@H]4CC[C@H](N5CCOCC5)CC4)cc23)cs1 [Compound I-120, 4-((1r,4r)-4-(3-(2-methoxythiazol-4-yl)-1H-pyrrolo[2,3-b]pyridin-5-yl)cyclohexyl)morpholine] | 
1.45 | Cc1cnc(-c2c[nH]c3ncc([C@H]4CC[C@H](N5CCCOCC5)CC4)cc23)s1 [Compound I-121, 3-(5-methyl-1,3-thiazol-2-yl)-5-[trans-4-(1,4-oxazepan-4-yl)cyclohexyl]-1H-pyrrolo[2,3-b]pyridine] | 
1.29 | c1sc(N2CCCC2)nc1-c1c[nH]c2ncc([C@H]3CC[C@H](N4CCCOCC4)CC3)cc12 [Compound I-122, 5-[trans-4-(1,4-oxazepan-4-yl)cyclohexyl]-3-(2-pyrrolidin-1-yl-1,3-thiazol-4-yl)-1H-pyrrolo[2,3-b]pyridine] | 
1.07 | Cc1nc(-c2c[nH]c3ncc([C@H]4CC[C@H](N5CCCOCC5)CC4)cc23)sc1C [Compound I-123, 3-(4,5-dimethyl-1,3-thiazol-2-yl)-5-[trans-4-(1,4-oxazepan-4-yl)cyclohexyl]-1H-pyrrolo[2,3-b]pyridine] | 
0.52 | COc1nc(-c2c[nH]c3ncc([C@H]4CC[C@H](N5CCCOCC5)CC4)cc23)cs1 [Compound I-124, 3-(2-methoxy-1,3-thiazol-4-yl)-5-[trans-4-(1,4-oxazepan-4-yl)cyclohexyl]-1H-pyrrolo[2,3-b]pyridine] | 
0.52 | CCOc1nc(-c2c[nH]c3ncc([C@H]4CC[C@H](N5CCCOCC5)CC4)cc23)cs1 [Compound I-125, 3-(2-ethoxy-1,3-thiazol-4-yl)-5-[trans-4-(1,4-oxazepan-4-yl)cyclohexyl]-1H-pyrrolo[2,3-b]pyridine] | 
 | CN1CCN(c2ccc(-c3cnc4[nH]cc(-c5csc(C(=O)N6CCCCC6)n5)c4c3)cc2)CC1 [D] | 0.2705
 | CN1CCC(c2csc(-c3cnc4[nH]cc(-c5cnn(C)c5)c4c3)n2)CC1 [E] | 0.3757
 | CC(C)Cn1cc(-c2cnc3[nH]cc(-c4cnn(C)c4)c3c2)cn1 [F] | 0.3777
 | CN(C)C(=O)c1nc(-c2c[nH]c3ncc(-c4ccccc4)cc23)cs1 [G] | 0.3501
 | CN1CCN(c2nc(-c3c[nH]c4ncc(-c5ccccc5)cc34)cs2)CC1 [H] | 0.4917
 | CN1CCN(C(=O)c2nc(-c3c[nH]c4ncc(-c5ccc(N6CCN(C)CC6)cc5)cc34)cs2)CC1 [J] | 0.3286
 | O=C(c1nc(-c2c[nH]c3ncc(-c4ccccc4)cc23)cs1)N1CCOCC1 [K] | 0.2968
 | c1ncc(-c2c[nH]c3ncc(-c4ccc(N5CCOCC5)cc4)cc23)s1 [L] | 0.3642
